Columns and labels:
5 dpf zebrafish larvae = test: Zebrafish locomotor tracking assay; assay type: in vivo, Zebrafish (Danio rerio); details: for swimming (locomotor) behavior: 100 μM agonist, 5 dpf larvae, 300 s tracking
Procedure: Wild-type zebrafish of the AB line were utilized for all behavioral experiments. Adult and larval zebrafish were maintained on a 14 hr/10 hr light/dark cycle. They were maintained and bred using standard procedure https://zfin.org/zf_info/zfbook/zfbk.html. Larval zebrafish were reared until 5 days post-fertilization (dpf) in E3 media https://zfin.org/zf_info/zfbook/chapt1/1.3.html in an incubator at 28 °C. E3 media was changed daily, and healthy embryos were kept for experiments.
In the behavioral experiments, one 5 dpf zebrafish was placed in 250 μL of fish media per well of a 96-well plate (UNIPLATE Collection and Analysis Microplate, 96-Well 7701-1651). For each experimental condition, a group of 8 larvae (1 column) was used. Larvae were acclimated to the wells for 300 seconds after which an 8-channel pipette was used to simultaneously dispense 250 μL of 2x concentration of the TRPA1 agonist ASP7663 in fish media into each well. Locomotor activity was subsequently tracked and quantified (as distance travelled) for 300 additional seconds utilizing the Zebrabox system from ViewPoint Behavior Technology (Civrieux, France). For TRPA1 antagonist testing, larvae in the 96-well plate were pretreated with 1x concentration of antagonist in 250 μL E3 media for 20 minutes. Then, 250 μL of 2x TRPA1 agonist was added directly to this solution, and the resulting behavior was recorded as described above.
(§1) All data are presented as means ± standard error of the mean (SEM). For our in vitro statistical analysis, AUC of calcium influx (RFU) was measured to plot dose-response curves, which were further analyzed by nonlinear regression analysis. Mean RFU of the first 10 seconds was used as a baseline of the AUC. EC50 values of the dose-response curves were further used to plot Schild curves, and the curves were analyzed with linear regression analysis. For the mice von Frey test, mechanical thresholds were analyzed with two-way ANOVA followed by a Bonferonni test for multiple comparison analysis. For the zebrafish behavior test, the data from the first five seconds following drug administration were excluded, as zebrafish displacement during that period was highly influenced by liquid dispensing. AUC of all curves were measured and analyzed by one-way ANOVA. The post-hoc analysis was conducted with the Tukey’s or Dunnett’s multiple comparisons unless it stated otherwise. A value of y = 0 in the graph was used as a baseline of the AUC. For our time-course average displacement graph, we used 2nd degree polynomial smoothing for a better representation; however, we used data before smoothing for all statistical analysis and quantification. All in vitro and in vivo data were evaluated using GraphPad Prism 7 (GraphPad Software, La Jolla, CA) unless it stated otherwise.

mouse TRPA1 (mTRPA1) = target: T1, mouse TRPA1 (mTRPA1) (Mus musculus, UniProt Q8BLA8); test: FLIPR calcium signaling assay in mTRPA1-transfected HEK293 cells; assay type: cell-based; details: for EC50: read-out: EC50 (potency in µM)
T1 construct: host or cells: HEK293 (ATCC CRL-1573), transient transfection
T1 sequence (Q8BLA8 whole entry): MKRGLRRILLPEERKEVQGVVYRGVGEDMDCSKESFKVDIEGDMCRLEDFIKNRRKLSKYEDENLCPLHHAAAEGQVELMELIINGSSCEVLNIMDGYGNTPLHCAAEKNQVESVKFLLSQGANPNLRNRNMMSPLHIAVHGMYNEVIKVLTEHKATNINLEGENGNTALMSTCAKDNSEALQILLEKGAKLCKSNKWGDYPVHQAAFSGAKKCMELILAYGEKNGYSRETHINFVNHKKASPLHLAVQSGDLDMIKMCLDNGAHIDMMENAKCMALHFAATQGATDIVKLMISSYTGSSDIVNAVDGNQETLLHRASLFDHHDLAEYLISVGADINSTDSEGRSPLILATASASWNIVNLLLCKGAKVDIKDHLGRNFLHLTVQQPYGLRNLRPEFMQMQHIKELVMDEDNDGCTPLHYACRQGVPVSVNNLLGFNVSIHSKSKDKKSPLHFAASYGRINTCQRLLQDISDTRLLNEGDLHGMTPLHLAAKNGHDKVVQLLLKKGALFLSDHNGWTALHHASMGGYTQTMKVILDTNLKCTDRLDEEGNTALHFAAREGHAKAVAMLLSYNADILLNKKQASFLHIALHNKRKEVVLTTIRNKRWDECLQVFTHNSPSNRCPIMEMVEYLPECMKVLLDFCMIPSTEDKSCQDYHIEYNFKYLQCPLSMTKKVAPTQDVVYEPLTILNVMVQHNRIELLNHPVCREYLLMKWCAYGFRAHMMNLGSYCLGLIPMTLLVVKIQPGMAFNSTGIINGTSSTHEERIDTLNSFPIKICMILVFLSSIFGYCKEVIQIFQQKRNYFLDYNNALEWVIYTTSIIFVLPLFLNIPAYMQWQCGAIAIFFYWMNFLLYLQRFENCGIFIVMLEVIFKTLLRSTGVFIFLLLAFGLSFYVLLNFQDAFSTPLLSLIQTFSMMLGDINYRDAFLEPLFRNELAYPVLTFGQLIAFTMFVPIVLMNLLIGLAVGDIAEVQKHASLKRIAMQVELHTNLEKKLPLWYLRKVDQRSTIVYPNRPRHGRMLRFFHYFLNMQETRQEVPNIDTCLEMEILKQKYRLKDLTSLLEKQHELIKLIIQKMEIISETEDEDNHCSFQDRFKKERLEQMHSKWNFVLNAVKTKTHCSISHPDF
Procedure: HEK293 cells (#CRL-1573, ATCC, VA, USA) were cultured in DMEM media (#11995-065, Sigma-Aldrich, MO, USA) with 10% Fetal Bovine Serum (#F0926-500ML, Thermo Fisher, MA, USA). The cells were maintained in a 37 °C incubator with consistent 5% CO2. They were seeded in a clear 6 well flat bottom cell culture plates (#07-200-83, Corning ®, Thermo Fisher) with 500,000 cells/2 ml/well for transfection, in serum-free Opti-MEM (#31985070, Gibco®, Thermo Fisher). These cells were transfected with pcDNA3.1-mTRPA1 (#MR227099, OriGene, MD, USA), pcDNA3.1-zTRPA1a, or pcDNA3.1-zTRPA1b (a gift from Dr. David Prober) using X-tremeGENE^TM 9 (#6365809001, Sigma-Aldrich). After 24 hours, the transfected cells were dislodged with trypsin, resuspended in Opti-MEM, and seeded 25,000 cells/25 µl/well in 384-well black polystyrene microplates (#82051-296, VWR, PA, USA) for testing calcium signaling the following day. Experiments were carried out with the approval of the Institutional Biohazard Committee (#13-013-16).
Twenty-five µl calcium sensitive Fluorescent Imaging Plate Reader (FLIPR) Calcium 6 assay dye (#R8190, Molecular Devices, CA, USA) was added to each well of a 384-well plate containing HEK293 cells transiently expressing mTRPA1, zTRPA1a, and zTRPA1b, respectively. The cells were incubated for an hour prior to the recording of intracellular calcium levels in a FlexStation3 Multi-Mode Microplate Reader (#R8190, Molecular Devices) as previously described. All compounds were diluted in calcium buffer made with 1x HBSS (#14025-092, Thermo Fisher), 20 mM HEPES (#15630-080, Thermo Fisher), and 2.5 mM Probenecid (#P8761, Sigma-Aldrich). For agonist studies, ASP7663 (#5178, Tocris, Bristol, UK) was diluted in 1% DMSO-containing calcium buffer at desired concentrations and was added during the recording. The TRPA1 antagonists HC-030031 (#2896, Tocris), TCS-5861528 (#3938, Tocris), and A-967079 (#4716, Tocris) were diluted in calcium buffer, and 5 µl of 10x solutions were added 10 minutes prior to the recording. The same amount of DMSO (1%) was added to all control groups to maintain similar DMSO levels with the experimental groups. During the assay, the cells were challenged by a 5x ASP7663 solution or 1% DMSO solution at the 20 seconds time point, and both solutions were diluted in calcium buffer. Relative fluorescence units (RFU) were measured for 120 seconds period by the Flexstation. Area under the curve (AUC) was further evaluated from individual calcium influx data (Supplemental Figs 2 and 4) to plot does-response curve of antagonists. For each specific antagonist concentration we plotted Log(dose ratio-1) against the antagonist concentration in a Schild plot. The dose ratio (A’/A) equals the EC50 of the agonist ([…]) in the presence of a concentration of the antagonist (A’) divided by the EC50 of the agonist in the absence of antagonist (A). The x-intercept of the Schild plot was used to identify the antagonist-receptor affinity (pA2).
as §1, with “A value of y = 0 in the graph was used as a baseline of the AUC. For our time-course average displacement graph, we used 2nd degree polynomial smoothing for a better representation; however, we used data before smoothing for all statistical analysis and quantification. All in vitro and in vivo data were evaluated using GraphPad Prism 7 (GraphPad Software, La Jolla, CA) unless it stated otherwise.” left out

[1] = agonist calcium influx, AUC of RFU, mTRPA1-transfected HEK293
[2] = Schild plot against ASP7663-induced calcium influx, mTRPA1

Structure (SMILES) | swimming (locomotor) behavior (5 dpf zebrafish larvae) | EC50 (mouse TRPA1 (mTRPA1); [1]) | locomotor activity (5 dpf zebrafish larvae; ASP7663 higher concentration 31.6 and 100 μM) | locomotor activity (5 dpf zebrafish larvae; ASP7663 low doses 3.16 and 10 μM) | persistence of calcium influx (mouse TRPA1 (mTRPA1); 316 µM, up to 120 seconds, compared to AITC) | pEC50 (mouse TRPA1 (mTRPA1); [1]) | potency weaker than previously reported (fold) (mouse TRPA1 (mTRPA1); versus similar FLIPR-based calcium assay) | swimming behavior with antagonist alone (5 dpf zebrafish larvae; 10 μM HC-030031 alone vs E3) | inhibition of ASP7663 (100 μM)-mediated nocifensive locomotor behavior (5 dpf zebrafish larvae; 10 μM antagonist pre-incubation 20 minutes) | pA2 (mouse TRPA1 (mTRPA1); [2]) | pA2 expressed in µM (mouse TRPA1 (mTRPA1); [2])
C=CCN=C=S [AITC, allyl isothiocyanate] | elicited an acute and rapid swimming behavior immediately upon treatment | 5.8 µM | – | – | – | – | – | – | – | – | –
CC(C)CN1C(=O)/C(=C/C(=O)O)c2cccc(F)c21 [ASP7663] | induced a slower and more sustained swimming behavior | 6.8 µM | hyperlocomotor activity | induced hypolocomotion | more persistent calcium influx compared to AITC | 5.16 ± 0.16 | ~ 10 fold | – | – | – | –
CC(C)c1ccc(NC(=O)Cn2cnc3c2c(=O)n(C)c(=O)n3C)cc1 [HC-030031] | – | – | – | – | – | – | – | increased swimming behavior over baseline | inhibited the nocifensive locomotor behavior | 5.65 ± 0.2 | 2.2 µM

Reference: article PMC6382835, “A critical evaluation of TRPA1-mediated locomotor behavior in zebrafish as a screening tool for novel anti-nociceptive drug discovery” (Scientific Reports, 2019)
